Results as given in patent EP3952873B1 (priority 2019, dated 2020).
Entries after “also recorded” stand apart in the source; their conditions may differ.

What was measured:
[1] = target: T1, GHB high-affinity binding site/CaMK2a (Rattus norvegicus, UniProt P11275); test: Rat brain membrane [3H]NCS-382 binding assay; conditions: 16 nM [3H]NCS-382, rat cortical synaptic membranes, pH 6.0, 0-4 °C
T1 construct: rat (Sprague-Dawley) cortical synaptic membranes (P2 synaptosomes) were prepared; from tissue; host or cells: rat (Sprague-Dawley) cortical synaptic membranes (P2 synaptosomes)
Experimental: According to previously published protocols, rat (Sprague-Dawley) cortical synaptic membranes (P2 synaptosomes) were prepared and stored at -20 °C until the day of assay (Wellendorph et al., 2005). Membranes were then washed three times with binding buffer (50 mM potassium phosphate buffer pH 6.0). The binding protocol was performed in 96-well microplates. In brief, compounds were incubated with 16 nM [^3H]NCS-382 radioligand and membranes for 60 min at 0-4 °C, filtered through GF/C filter plates (PerkinElmer) using a 96-well harvester (Packard), rapidly washed three times with ice-cold binding buffer, and filter plates dried. CPM values were determined using liquid scintillation counting in a TopCount NXT Microplate Scintillation & Luminescence Counter (PerkinElmer). Curves were generated using non-linear regression (GraphPad Prism 7, GraphPad Prism Software, San Diego, CA, USA).
JON-11, related analogues, and pro-JON-11(10) were tested in the [^3H]NCS-382 binding assay (Wellendorph et al., 2005).

recombinant CaMK2a = target: T2, recombinant CaMK2a (Rattus norvegicus, UniProt P11275); test: [3H]HOCPCA binding to recombinant CaMK2a expressed in HEK293T cells
T2 construct: host or cells: HEK293T
Experimental: Protein concentration was determined using the Bradford protein assay. […] The dried filters were added scintillation liquid and radioactivity measured on a Tricarb 2100 Scintillation counter (Packard).

in vivo = test: in vivo; parameters: species or system mice; conditions: male, C57BL/6JRj, mouse, ip, 10 mg/kg
Experimental: To evaluate the ability of pro-JON-11 (10) and JON-11 to penetrate the blood-brain barrier, a brain-to-plasma distribution ratio (B/P ratio) was obtained. All subjects were male C57BL/6JRj mice (24-26 g, Janvier Labs, France) housed in groups of three-four with ad libitum access to food and water. The mice were maintained under diurnal conditions (12-h light/dark cycle with lights on at 7 AM) in a temperature (22±1 °C) and humidity-controlled room (50±10%). Ethical permission for the procedures used in this in vivo study was granted by the Danish Animal Experiments Inspectorate.
Compounds were dissolved in PEG-400 (Sigma) at 20% of the final required volume. The final volume was then made up by 10% (w/v) hydroxypropyl-beta-cyclodextrin (Sigma Aldrich) in sterile saline. The solution was sonicated for 5 min. The JON-11 solution was pH-adjusted to 7.4 with 0.2% 2M NaOH.
Both compounds were injected i.p. at a dose of 10 mg/kg (n=3 for each compound). […] After 30 min, the animals were sacrificed by decapitation, trunk blood was collected in EDTA-coated tubes and the brain was gently removed. Blood and tissues were temporarily stored on ice until plasma and brain homogenate preparation. Blood plasma was separated from cells by centrifugation for 10 min at 1,500 x g at 4 °C and plasma harvested. […]
Plasma and brain exposure of JON-11 and pro-JON-11 were evaluated in male mice. […]

GABAB receptor = target: T3, GABAB receptor (Rattus norvegicus, UniProt Q9Z0U4); test: GABAB binding assay with [3H]GABA, rat brain synaptic membranes; conditions: at 100 µM
T3 construct: from tissue; host or cells: rat brain synaptic membranes
Source text: (§1) To assess affinity of JON-11 for the GABAB receptor, we employed a GABAB binding assay using rat brain synaptic membranes (Wellendorph et al., 2005). […] B) JON-11 was further assessed for functional activity using CHO cells stably expressing GABAB(1b,2) receptors (Rajalu et al., 2015).

GABAB(1b,2) receptors = target: T4, GABAB(1b,2) receptors (Homo sapiens, UniProt Q9UBS5); test: GABAB functional assay in CHO cells; assay type: cell-based; conditions: CHO cells stably expressing GABAB(1b,2), concentrations up to 300 µM
T4 construct: expressed in transfected cells
Source text: as §1

mice = assay type: in vivo; conditions: 100 mg/kg i.p.
Experimental: To determine locomotor effects (e.g. sedation or hyperactivity) compounds were assessed after systemic administration to mice. Mice (typically n=5-8) were administered selected compounds, e.g. JON-11 and pro-JON-11 and vehicle controls, and placed in transparent cages (L: 37 cm x W: 21 cm x H: 15 cm). Locomotor activity were measured via a camera mounted above the arena. Mice will be recorded for 45 min and data collected in 5-min intervals. Data will be stored on a computer equipped with Ethovision XT (Noldus).

DTA mouse model = DTA mouse model of narcolepsy (EEG/EMG, cataplexy); assay type: in vivo; conditions: after 8-11 days of chronic administration, 100 mg/kg i.p.
Experimental: Using the DTA mouse model (Tabuchi et al., 2014) we determined changes in sleep-wake EEG/EMG patterns (including cataplexy) at different time points (1 day and 8-11 days) under the influence of JON-11. After drug cessation day 14, EEG/EMG changes were mapped up to day 33. Under anesthesia with isoflurane (2% to 2.5% in O2) electrodes were placed in the scull and neck muscles of the mice. After 5-10 days recovery the electrodes are connected to a recording system, and EEG/EMG signals are recorded with synchronised video recordings. From the data, sleep/wake parameters and cataplexy episodes are scored and calculated. Analyses were performed by an observer blinded to the treatment groups.

GABAA receptors = test: Affinity for GABAA receptors; assay type: binding

T4 sequence (Q9UBS5 1-844 isoform Q9UBS5-2): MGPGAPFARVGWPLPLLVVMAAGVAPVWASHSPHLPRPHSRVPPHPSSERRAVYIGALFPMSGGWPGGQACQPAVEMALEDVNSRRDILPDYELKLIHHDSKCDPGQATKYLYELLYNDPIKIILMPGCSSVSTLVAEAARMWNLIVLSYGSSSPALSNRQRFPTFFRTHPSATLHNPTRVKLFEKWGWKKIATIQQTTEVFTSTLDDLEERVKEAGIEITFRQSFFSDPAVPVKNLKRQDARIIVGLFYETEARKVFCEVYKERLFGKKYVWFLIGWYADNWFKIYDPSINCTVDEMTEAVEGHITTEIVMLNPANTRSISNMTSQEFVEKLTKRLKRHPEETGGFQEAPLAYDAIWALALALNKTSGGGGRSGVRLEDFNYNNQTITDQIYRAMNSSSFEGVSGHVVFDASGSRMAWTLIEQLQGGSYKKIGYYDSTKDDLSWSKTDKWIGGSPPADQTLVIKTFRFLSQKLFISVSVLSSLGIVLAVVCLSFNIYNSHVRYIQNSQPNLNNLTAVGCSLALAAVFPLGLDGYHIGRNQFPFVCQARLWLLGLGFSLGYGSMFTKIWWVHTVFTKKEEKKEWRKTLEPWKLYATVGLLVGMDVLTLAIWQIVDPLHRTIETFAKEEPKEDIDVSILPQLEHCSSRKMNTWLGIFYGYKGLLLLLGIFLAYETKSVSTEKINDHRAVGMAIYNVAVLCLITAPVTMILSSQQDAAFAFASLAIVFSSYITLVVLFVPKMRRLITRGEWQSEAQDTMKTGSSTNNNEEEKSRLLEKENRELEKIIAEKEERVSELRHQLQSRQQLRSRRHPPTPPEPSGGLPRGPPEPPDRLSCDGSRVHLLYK
T4 sequence (O75899 42-941 partner): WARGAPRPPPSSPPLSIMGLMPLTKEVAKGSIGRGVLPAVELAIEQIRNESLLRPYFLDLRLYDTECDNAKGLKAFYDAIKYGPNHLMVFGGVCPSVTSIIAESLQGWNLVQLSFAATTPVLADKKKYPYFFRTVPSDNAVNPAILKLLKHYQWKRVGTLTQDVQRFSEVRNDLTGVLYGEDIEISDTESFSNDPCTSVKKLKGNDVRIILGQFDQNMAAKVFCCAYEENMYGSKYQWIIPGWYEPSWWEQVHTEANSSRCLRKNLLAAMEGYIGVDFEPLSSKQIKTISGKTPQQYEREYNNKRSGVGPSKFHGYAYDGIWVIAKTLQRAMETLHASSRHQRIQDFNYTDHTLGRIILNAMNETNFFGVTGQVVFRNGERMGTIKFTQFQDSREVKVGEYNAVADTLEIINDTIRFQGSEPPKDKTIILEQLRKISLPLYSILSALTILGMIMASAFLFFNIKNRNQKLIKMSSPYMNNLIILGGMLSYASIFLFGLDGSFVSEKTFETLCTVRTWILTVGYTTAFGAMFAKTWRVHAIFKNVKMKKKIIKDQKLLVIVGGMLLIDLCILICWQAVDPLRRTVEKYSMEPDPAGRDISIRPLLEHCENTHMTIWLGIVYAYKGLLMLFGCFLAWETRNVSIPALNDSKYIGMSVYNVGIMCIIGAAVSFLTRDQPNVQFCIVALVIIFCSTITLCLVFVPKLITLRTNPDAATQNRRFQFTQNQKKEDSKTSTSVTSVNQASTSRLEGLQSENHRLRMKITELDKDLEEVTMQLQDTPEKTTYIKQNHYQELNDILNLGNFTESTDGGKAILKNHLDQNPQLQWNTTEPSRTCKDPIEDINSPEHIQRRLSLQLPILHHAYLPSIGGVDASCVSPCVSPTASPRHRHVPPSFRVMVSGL
T2 sequence (P11275 whole entry): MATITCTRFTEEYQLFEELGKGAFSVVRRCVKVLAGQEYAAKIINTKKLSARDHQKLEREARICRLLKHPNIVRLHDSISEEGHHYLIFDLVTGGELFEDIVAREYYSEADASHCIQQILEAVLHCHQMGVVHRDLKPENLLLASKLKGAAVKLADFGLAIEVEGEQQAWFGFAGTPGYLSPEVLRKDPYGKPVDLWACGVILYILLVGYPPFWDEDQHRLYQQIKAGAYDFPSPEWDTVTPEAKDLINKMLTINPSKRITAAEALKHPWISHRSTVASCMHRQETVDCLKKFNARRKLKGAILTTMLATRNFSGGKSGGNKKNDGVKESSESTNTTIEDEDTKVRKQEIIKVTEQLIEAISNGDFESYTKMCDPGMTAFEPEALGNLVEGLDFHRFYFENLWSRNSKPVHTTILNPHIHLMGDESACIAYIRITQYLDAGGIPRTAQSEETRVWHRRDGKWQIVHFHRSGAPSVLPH
T3 sequence (Q9Z0U4 20-960): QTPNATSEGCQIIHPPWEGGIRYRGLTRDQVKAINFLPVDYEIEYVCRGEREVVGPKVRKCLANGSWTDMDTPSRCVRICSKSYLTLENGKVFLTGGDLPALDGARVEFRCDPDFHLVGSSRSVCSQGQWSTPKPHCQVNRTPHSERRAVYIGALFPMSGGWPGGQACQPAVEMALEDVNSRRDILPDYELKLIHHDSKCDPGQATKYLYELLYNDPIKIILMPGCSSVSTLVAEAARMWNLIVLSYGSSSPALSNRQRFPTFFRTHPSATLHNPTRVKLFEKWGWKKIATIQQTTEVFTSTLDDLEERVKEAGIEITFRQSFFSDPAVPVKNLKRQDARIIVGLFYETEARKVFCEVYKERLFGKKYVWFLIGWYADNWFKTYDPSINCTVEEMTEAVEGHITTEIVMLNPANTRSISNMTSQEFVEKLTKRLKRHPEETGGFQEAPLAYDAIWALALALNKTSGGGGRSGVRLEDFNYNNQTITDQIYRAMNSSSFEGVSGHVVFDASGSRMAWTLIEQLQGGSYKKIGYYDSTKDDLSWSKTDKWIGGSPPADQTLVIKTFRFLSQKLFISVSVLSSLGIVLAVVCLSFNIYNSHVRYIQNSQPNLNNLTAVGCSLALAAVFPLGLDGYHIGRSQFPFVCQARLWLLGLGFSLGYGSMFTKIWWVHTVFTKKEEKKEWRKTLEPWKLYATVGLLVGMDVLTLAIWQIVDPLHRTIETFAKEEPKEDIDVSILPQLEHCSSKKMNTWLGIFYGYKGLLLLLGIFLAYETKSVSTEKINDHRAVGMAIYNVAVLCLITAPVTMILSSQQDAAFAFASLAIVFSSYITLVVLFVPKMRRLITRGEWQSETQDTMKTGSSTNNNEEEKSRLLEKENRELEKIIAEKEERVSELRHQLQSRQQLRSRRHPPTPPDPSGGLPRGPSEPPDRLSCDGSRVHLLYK
T3 sequence (O88871 41-940 partner): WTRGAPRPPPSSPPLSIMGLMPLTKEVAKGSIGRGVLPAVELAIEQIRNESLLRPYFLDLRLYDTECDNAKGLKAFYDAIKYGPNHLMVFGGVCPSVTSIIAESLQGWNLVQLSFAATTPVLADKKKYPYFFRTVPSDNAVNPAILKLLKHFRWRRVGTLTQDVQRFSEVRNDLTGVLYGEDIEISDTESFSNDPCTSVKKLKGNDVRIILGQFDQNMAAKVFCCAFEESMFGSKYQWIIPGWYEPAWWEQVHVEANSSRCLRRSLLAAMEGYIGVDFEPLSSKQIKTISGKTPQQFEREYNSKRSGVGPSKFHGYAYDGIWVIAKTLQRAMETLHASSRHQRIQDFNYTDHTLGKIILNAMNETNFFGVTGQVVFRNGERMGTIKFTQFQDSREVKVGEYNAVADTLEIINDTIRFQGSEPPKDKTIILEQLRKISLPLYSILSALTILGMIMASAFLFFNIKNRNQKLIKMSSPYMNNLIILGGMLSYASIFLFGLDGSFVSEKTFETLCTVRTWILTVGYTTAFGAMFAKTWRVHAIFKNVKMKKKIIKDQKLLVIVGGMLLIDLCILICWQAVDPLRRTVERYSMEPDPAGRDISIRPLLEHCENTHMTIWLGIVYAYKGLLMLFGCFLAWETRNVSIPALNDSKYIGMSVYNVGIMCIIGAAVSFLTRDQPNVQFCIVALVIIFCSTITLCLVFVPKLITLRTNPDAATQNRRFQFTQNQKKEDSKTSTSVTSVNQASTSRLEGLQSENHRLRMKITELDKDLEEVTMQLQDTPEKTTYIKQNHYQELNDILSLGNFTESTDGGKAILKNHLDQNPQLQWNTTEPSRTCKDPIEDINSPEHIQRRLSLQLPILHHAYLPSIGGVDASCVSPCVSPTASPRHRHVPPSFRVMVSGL
T1 sequence (P11275 whole entry): as the sequence (P11275 whole entry) above

O=C(O)Cc1cn2nc(-c3ccc(Cl)cc3)ccc2n1 [JON-11, 2-(6-(4-Chlorophenyl)imidazo[1,2-b]pyridazin-2-yl)acetic acid]
Ki [1]: 220 nM | Ki (recombinant CaMK2a; 5 nM [3H]HOCPCA, whole cell lysates of CaMK2a-transfected HEK293T cells): 3500 nM | higher affinity compared to GHB (recombinant CaMK2a; ratio of Ki values, [3H]HOCPCA binding): 14 x | Kp at 30 min (in vivo): 0.05 | ability to compete with [3H]GABA (GABAB receptor): no ability to compete | agonistic activity at recombinant GABAB receptors (GABAB(1b,2) receptors): not a GABAB agonist; also recorded: Lack of agonistic activity | locomotor activity (mice): does not affect locomotor activity | number of cataplexy attacks (DTA mouse model): significantly decreases | affinity for GABAA receptors (GABAA receptors): weak affinity
